Square brackets hold non-standard residues; d marks the D form. Peptide text beside a SMILES is read from it. * marks the point of attachment. Acetyl(thymin-1-yl) = Cc1cn(CC(=O)*)c(=O)[nH]c1=O; Cha = N[C@@H](CC1CCCCC1)C(=O)O
Experiments:
[1] = test system: IMR90 cells; assay type: cell-based
Method: page 16: S7. Cell culture and MTT assay Cell culture: HeLa and IMR90 cells were purchased from American-type Culture Collection (ATCC, USA). Hela and IMR90 were cultured in Dulbecco’s Modified Eagle’s medium (DMEM) supplemented with 10% v fetal bovine serum (FBS), 100 U/mL penicillin and 100 μg/mL streptomycin. All cells were cultured at 37 °C in a […] For MTT assay, cells were seeded in a 96-well plate with the density of 5*103 cells per-well. After 24 hours seeding, the solutions of samples with a serial of concentr ations (5 concentrations and control) were added to each well. 10 μL MTT solution (5 mg/mL) was added to each well and incubated at 37°C for 2 days incubation and incubated for another 4 h, and then 100 μL of SDS-HCl solution was added to stop the reductio n reaction and dissolve the purple formazan. The absorbance of each well at 595 nm was measured by a multimode microplate reader. The cytotoxicity assay was performed three times and the average value of the three measurements was taken. ATP depletion method: Cells were pre -incubated with 10 mM sodium azide ( NaN3), 6 mM 2DG(2-deoxy-glucose) […] After 40 minutes, cells were washed with PBS and free medium. MNP/ADP complex was treated to ATP depleted HeLa cells for 48 hours to assess cytotoxicity.

[2] = Turbidity / appearance of aqueous solution (photograph, transmittance at 280 nm); assay type: physicochemical; settings: 200 μM in aqueous solution, ATP added
Method: First, we investigated the self-assembly ability and interaction between MNP and ADP or ATP. […] As can be evinced from Fig. 1b and c, the formed nanostructure consisted of approximately 500 nm-sized micellar structures according to transmission electron microscopy (TEM) and scanning electron microscopy (SEM). This is further confirmed by the turbidity of the solution which was determined by transmittance using UV-Vis spectroscopy. […] Transmission electron (TEM) microscopy images of (a) MNP/ADP complex (scale bar: 100 nm) and (b) MNP/ATP complex at 200 μM concentration in aqueous solution (scale bar: 500 nm); (c) scanning electron microscopy image of the MNP/ATP complex at 200 μM concentration in aqueous solution (scale bar: 500 nm); (d) sample turbidity measured by transmittance at 280 nm (inset: photograph) of the MNP, MNP/ADP complex and MNP/ATP complex at 200 μM concentration in aqueous solution; (e) confocal images of the MNP-NBD/ATP complex (Scale bar: 1 μm); (f) photograph of the aqueous solutions of the control molecules (AcNP and MNP2) and MNP in a complex with ATP (concentration: 200 μM). […] S3. ^† Micellar structures characterized by green fluorescence (Fig. 1e) were observed by confocal laser scanning microscopy performed on the MNP-NBD/ATP complex at 200 μM concentration in aqueous solution. […]

appearance of solution in the presence of ATP [2]	Compound	toxicity toward IMR90 cells above 25 μM [1]	toxicity toward IMR90 cells at 25 μM [1]
	CC(=O)N[C@H](CCCNC(=N)N)C(=O)N[C@H](CCCNC(=N)N)C(=O)N[C@@H](CC1CCCCC1)C(=O)N[C@H](CCCNC(=N)N)C(=O)N[C@@H](CC1CCCCC1)C(=O)N[C@H](CCCNC(=N)N)C(=O)N[C@@H](CC1CCCCC1)C(=O)N[C@@H](Cc1ccccc1)C(=O)N[C@@H](Cc1ccccc1)C(=O)O [AcNP, Ac–rrFxrFxrFxFF] (Ac-[dR][dR][Cha][dR][Cha][dR][Cha]FF-OH)	less toxicity	almost no toxicity
did not become cloudy	Cc1cn(CC(=O)N[C@H](CCCNC(=N)N)C(=O)N[C@H](CCCNC(=N)N)C(=O)N[C@@H](CC2CCCCC2)C(=O)N[C@H](CCCNC(=N)N)C(=O)N[C@@H](CC2CCCCC2)C(=O)N[C@H](CCCNC(=N)N)C(=O)N[C@@H](CC2CCCCC2)C(=O)O)c(=O)[nH]c1=O [MNP2, Thy–rrFxrFxrFx] ({Acetyl(thymin-1-yl)}-[dR][dR][Cha][dR][Cha][dR][Cha]-OH)		

Source: publication PMC9159100, “Intramitochondrial co-assembly between ATP and nucleopeptides induces cancer cell apoptosis” (Chemical Science, 2022)
